{"source": "the supplement of paper PMC11208160", "assay": "recombinant UMI read abundance after kanamycin selection (control-corrected) (log10(CPM+1)); higher = more efficient recombination; extreme values may be limits of the assay; sequences stand for … in AGTGCAGAGAAAATCGGCCAGTTTTCTCTGCCTGCAGTCCGCATGCCGTGGGACCCCTTGGGTTCTAACCTGTTGCCTAGATTTATGCAGCGGACTGCCTTTCTCCCAAAGTGATAAACCGG…AGGTTGGTTTCACT; site = the 11-nt donor", "protocol": "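Pooled E. coli donor-specificity screen for the IS621 bridge recombinase. Each library member carries a reprogrammed 11-nt donor and a full-length LE bridge RNA expressed in cis from the natural promoter, with a paired donor-binding loop (8-nt LDG + 4-nt RDG) and a target-binding loop fixed to T5. It is co-electroporated with a T5 target plasmid; recombinase is induced with 0.07 mM IPTG and recombinants are selected on kanamycin. UMIs are counted as CPM, averaged over two biological replicates and corrected by the unselected control. Molecule = full bridge RNA written as DNA, built from the T5 scaffold: LDG = donor specificity nt 1-8, RDG = reverse complement of nt 8-11.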", "data": [{"sequence": "AATTGGACATGGACCGGTTTTCCCGGTAATCCGTATTTGAC (site CATTGGACTGT)", "values": [{"measurement": "recombinant UMI read abundance (log10)", "result": 0.955}]}, {"sequence": "AATTGGACATGGACCGGTTTTCCCGGTAATCCGTATTTGAC (site GATTGGACTGT)", "values": [{"measurement": "recombinant UMI read abundance (log10)", "result": 0.231}]}, {"sequence": "AATTGGACATGGACCGGTTTTCCCGGTAATCCGTATTTGAC (site TATTGGACTGT)", "values": [{"measurement": "recombinant UMI read abundance (log10)", "result": 1.67}]}, {"sequence": "AATTGTACATGGACCGGTTTTCCCGGTAATCCGTATTTGTC (site AATTGTACTGA)", "values": [{"measurement": "recombinant UMI read abundance (log10)", "result": 0.692}]}, {"sequence": "AATTGTGCATGGACCGGTTTTCCCGGTAATCCGTATTTGAC (site AATTGTGCTGT)", "values": [{"measurement": "recombinant UMI read abundance (log10)", "result": 2.25}]}, {"sequence": "AATTGTGCATGGACCGGTTTTCCCGGTAATCCGTATTTGCC (site AATTGTGCTGG)", "values": [{"measurement": "recombinant UMI read abundance (log10)", "result": 0.735}]}, {"sequence": "AATTTAACATGGACCGGTTTTCCCGGTAATCCGTATTTGCT (site AATATAACTAG)", "values": [{"measurement": "recombinant UMI read abundance (log10)", "result": 1.68}]}, {"sequence": "AATTTAACATGGACCGGTTTTCCCGGTAATCCGTATTTGCT (site AATCTAACTAG)", "values": [{"measurement": "recombinant UMI read abundance (log10)", "result": 1.95}]}, {"sequence": "AATTTAACATGGACCGGTTTTCCCGGTAATCCGTATTTGCT (site AATGTAACTAG)", "values": [{"measurement": "recombinant UMI read abundance (log10)", "result": 0.828}]}, {"sequence": "AATTTAACATGGACCGGTTTTCCCGGTAATCCGTATTTGCT (site AATTTAACTAG)", "values": [{"measurement": "recombinant UMI read abundance (log10)", "result": 2.28}]}, {"sequence": "AATTTATCATGGACCGGTTTTCCCGGTAATCCGTATTTGTT (site AATTTATCTAA)", "values": [{"measurement": "recombinant UMI read abundance (log10)", "result": 0.558}]}, {"sequence": "ACAAACCCATGGACCGGTTTTCCCGGTAATCCGTATTTGGG (site ACAAACCCTCC)", "values": [{"measurement": "recombinant UMI read abundance (log10)", "result": 0}]}, {"sequence": "ACAAATCCATGGACCGGTTTTCCCGGTAATCCGTATTTGAC (site ACAAATCCTGT)", "values": [{"measurement": "recombinant UMI read abundance (log10)", "result": 0.255}]}, {"sequence": "ACAAATCCATGGACCGGTTTTCCCGGTAATCCGTATTTGAC (site ACACATCCTGT)", "values": [{"measurement": "recombinant UMI read abundance (log10)", "result": 0}]}, {"sequence": "ACAAATCCATGGACCGGTTTTCCCGGTAATCCGTATTTGAC (site ACAGATCCTGT)", "values": [{"measurement": "recombinant UMI read abundance (log10)", "result": 0}]}, {"sequence": "ACAAATCCATGGACCGGTTTTCCCGGTAATCCGTATTTGAC (site ACATATCCTGT)", "values": [{"measurement": "recombinant UMI read abundance (log10)", "result": 0}]}, {"sequence": "ACAATCGCATGGACCGGTTTTCCCGGTAATCCGTATTTGAA (site ACAATCGCTTT)", "values": [{"measurement": "recombinant UMI read abundance (log10)", "result": 2.55}]}, {"sequence": "ACAATGTCATGGACCGGTTTTCCCGGTAATCCGTATTTGCG (site ACAATGTCTCG)", "values": [{"measurement": "recombinant UMI read abundance (log10)", "result": 3.04}]}, {"sequence": "ACACAAACATGGACCGGTTTTCCCGGTAATCCGTATTTGTC (site ACACAAACTGA)", "values": [{"measurement": "recombinant UMI read abundance (log10)", "result": 2.41}]}, {"sequence": "ACACAAACATGGACCGGTTTTCCCGGTAATCCGTATTTGTC (site ACACCAACTGA)", "values": [{"measurement": "recombinant UMI read abundance (log10)", "result": 0}]}, {"sequence": "ACACAAACATGGACCGGTTTTCCCGGTAATCCGTATTTGTC (site ACACGAACTGA)", "values": [{"measurement": "recombinant UMI read abundance (log10)", "result": 0}]}, {"sequence": "ACACAAACATGGACCGGTTTTCCCGGTAATCCGTATTTGTC (site ACACTAACTGA)", "values": [{"measurement": "recombinant UMI read abundance (log10)", "result": 0}]}, {"sequence": "ACACAACCATGGACCGGTTTTCCCGGTAATCCGTATTTGAC (site ACACAACCTGT)", "values": [{"measurement": "recombinant UMI read abundance (log10)", "result": 0}]}, {"sequence": "ACACAACCATGGACCGGTTTTCCCGGTAATCCGTATTTGAC (site ACACACCCTGT)", "values": [{"measurement": "recombinant UMI read abundance (log10)", "result": 0}]}, {"sequence": "ACACAACCATGGACCGGTTTTCCCGGTAATCCGTATTTGAC (site ACACAGCCTGT)", "values": [{"measurement": "recombinant UMI read abundance (log10)", "result": 0.668}]}, {"sequence": "ACACAACCATGGACCGGTTTTCCCGGTAATCCGTATTTGAC (site ACACATCCTGT)", "values": [{"measurement": "recombinant UMI read abundance (log10)", "result": 0}]}, {"sequence": "ACACATCCATGGACCGGTTTTCCCGGTAATCCGTATTTGAT (site ACACATCCTAT)", "values": [{"measurement": "recombinant UMI read abundance (log10)", "result": 1.34}]}, {"sequence": "ACACATCCATGGACCGGTTTTCCCGGTAATCCGTATTTGAT (site ACACATCCTCT)", "values": [{"measurement": "recombinant UMI read abundance (log10)", "result": 0.0152}]}, {"sequence": "ACACATCCATGGACCGGTTTTCCCGGTAATCCGTATTTGAT (site ACACATCCTGT)", "values": [{"measurement": "recombinant UMI read abundance (log10)", "result": 0}]}, {"sequence": "ACACATCCATGGACCGGTTTTCCCGGTAATCCGTATTTGAT (site ACACATCCTTT)", "values": [{"measurement": "recombinant UMI read abundance (log10)", "result": 0.0785}]}, {"sequence": "ACACATGCATGGACCGGTTTTCCCGGTAATCCGTATTTGAC (site ACACATACTGT)", "values": [{"measurement": "recombinant UMI read abundance (log10)", "result": 2.59}]}, {"sequence": "ACACATGCATGGACCGGTTTTCCCGGTAATCCGTATTTGAC (site ACACATCCTGT)", "values": [{"measurement": "recombinant UMI read abundance (log10)", "result": 1.71}]}, {"sequence": "ACACATGCATGGACCGGTTTTCCCGGTAATCCGTATTTGAC (site ACACATGCTGT)", "values": [{"measurement": "recombinant UMI read abundance (log10)", "result": 2.6}]}, {"sequence": "ACACATGCATGGACCGGTTTTCCCGGTAATCCGTATTTGAC (site ACACATTCTGT)", "values": [{"measurement": "recombinant UMI read abundance (log10)", "result": 0.598}]}, {"sequence": "ACACATTCATGGACCGGTTTTCCCGGTAATCCGTATTTGAC (site ACACATACTGT)", "values": [{"measurement": "recombinant UMI read abundance (log10)", "result": 0.745}]}, {"sequence": "ACACATTCATGGACCGGTTTTCCCGGTAATCCGTATTTGAC (site ACACATCCTGT)", "values": [{"measurement": "recombinant UMI read abundance (log10)", "result": 0.331}]}]}
